Tested on: HCV replicon RNA (GenBank Accession No. AJ242654)
Test: HCV Replicon Assay (replicon RNA reduction and/or Fluc reporter signal)
Format: cell-based, Hepatitis C virus
Details: Hepatitis C virus, 72 h, replicon-containing cells cultured with test compound for up to 3 days
Description: The lack of reliable and readily accessible cell-culture and small animal models permissive for HCV replication has limited the development of new anti-HCV agents. Self-replicating subgenomic HCV systems, termed HCV replicons, have been described and have been widely used to assess the efficacy of anti-HCV inhibitors (see Blight K J, et al., 2000, Efficient initiation of HCV RNA replication in cell culture. Science 290:1972-1974; Blight K J, et al., 2002, Highly permissive cell lines for subgenomic and genomic hepatitis C virus RNA replication. J Virol 76:13001-13014; Ikeda M, et al., 2002. Selectable subgenomic and genome-length dicistronic RNAs derived from an infectious molecular clone of the HCV-N strain of hepatitis C virus replicate efficiently in cultured Huh7 cells. J Virol 76:2997-3006; Lohmann V, et al., 1999, Replication of subgenomic hepatitis C virus RNAs in a hepatoma cell line. Science 285:110-113; Pietschmann T, et al., 2002, Persistent and transient replication of full-length hepatitis C virus genomes in cell culture. J Virol 76:4008-4021; and, Pietschmann T, et al., 2001, Characterization of cell lines carrying self-replicating hepatitis C virus RNAs. J Virol 75:1252-1264).
As described in U.S. Pat. No. 6,630,343, HCV inhibitors are analyzed in the bicistronic replicon by quantitating replicon RNA (GenBank Accession No. AJ242654) reduction and/or the Fluc reporter signal. Replicon-containing cells may be cultured with a test compound of the present invention for up to 3 days. Interferon (IFN) is used as a positive control. In general, the replicon IC50 values shown in Table 1 represent IC50 values determined by replicon RNA reduction.

| SMILES | IC50 [µM] |
| --- | --- |
| C[C@H](NS(=O)(=O)c1ccc(-c2c(C#N)c3cc(OC(F)F)cnc3n2C2CCC2)nc1)C1CC1 [Cpd 200, 6-[3-cyano-1-cyclobutyl-5-(difluoromethoxy)-1H-pyrrolo[2,3-b]pyridin-2-yl]-N-[(1S)-1-cyclopropylethyl]pyridine-3-sulfonamide] | 0.5 to 2 |
| Cc1ccc2c(n1)c(C#N)c(-c1ccc(S(=O)(=O)N[C@@H](C)C(F)(F)F)cn1)n2C1CCCC1 [Cpd 222, 6-(3-cyano-1-cyclopentyl-5-methyl-1H-pyrrolo[3,2-b]pyridin-2-yl)-N-[(2S)-1,1,1-trifluoropropan-2-yl]pyridine-3-sulfonamide] | < 0.5 |
| N#Cc1c(-c2ccc(S(=O)(=O)NC3CC3)cn2)n(C2CCC2)c2ncc(C(F)(F)F)cc12 [Cpd 245, 6-[3-cyano-1-cyclobutyl-5-(trifluoromethyl)-1H-pyrrolo[2,3-b]pyridin-2-yl]-N-cyclopropylpyridine-3-sulfonamide] | < 0.5 |
| N#Cc1c(-c2ccc(NS(=O)(=O)C3CC3)cc2)n(C2CCC2)c2ncc(C(F)(F)F)cc12 [Cpd 246, N-{4-[3-cyano-1-cyclobutyl-5-(trifluoromethyl)-1H-pyrrolo[2,3-b]pyridin-2-yl]phenyl}cyclopropanesulfonamide] | 0.5 to 2 |
| CCc1cnc2c(c1)c(C#N)c(-c1ccc(S(=O)(=O)N[C@H](C)C(F)(F)F)cn1)n2C1CCCC1 [Cpd 251, 6-(3-cyano-1-cyclopentyl-5-ethyl-1H-pyrrolo[2,3-b]pyridin-2-yl)-N-[(2R)-1,1,1-trifluoropropan-2-yl]pyridine-3-sulfonamide] | < 0.5 |
| CCc1cnc2c(c1)c(C#N)c(-c1ccc(S(=O)(=O)N[C@@H](C)C(F)(F)F)cn1)n2C1CCCC1 [Cpd 252, 6-(3-cyano-1-cyclopentyl-5-ethyl-1H-pyrrolo[2,3-b]pyridin-2-yl)-N-[(2S)-1,1,1-trifluoropropan-2-yl]pyridine-3-sulfonamide] | < 0.5 |
| CC1(NS(=O)(=O)c2ccc(-c3c(C#N)c4cc(C5CC5)cnc4n3C3CCCC3)nc2)CC1 [Cpd 253, 6-(3-cyano-1-cyclopentyl-5-cyclopropyl-1H-pyrrolo[2,3-b]pyridin-2-yl)-N-(1-methylcyclopropyl)pyridine-3-sulfonamide] | 0.5 to 2 |
| Cc1cnc2c(c1)c(C#N)c(-c1ccc(S(=O)(=O)N[C@@H](C)C(F)(F)F)cn1)n2C1CCCC1 [Cpd 255, 6-(3-cyano-1-cyclopentyl-5-methyl-1H-pyrrolo[2,3-b]pyridin-2-yl)-N-[(2S)-1,1,1-trifluoropropan-2-yl]pyridine-3-sulfonamide] | < 0.5 |
| COc1cnc2c(c1)c(C#N)c(-c1ccc(S(=O)(=O)NC3(C)CC3)cn1)n2C1CCCC1 [Cpd 269, 6-(3-cyano-1-cyclopentyl-5-methoxy-1H-pyrrolo[2,3-b]pyridin-2-yl)-N-(1-methylcyclopropyl)pyridine-3-sulfonamide] | < 0.5 |
| CC1(NS(=O)(=O)c2ccc(-c3c(C#N)c4cc(Cl)cnc4n3C3CCC3)nc2)CC1 [Cpd 280, 6-(5-chloro-3-cyano-1-cyclobutyl-1H-pyrrolo[2,3-b]pyridin-2-yl)-N-(1-methylcyclopropyl)pyridine-3-sulfonamide] | < 0.5 |
| N#Cc1c(-c2ccc(S(=O)(=O)NC3(C(F)(F)F)CC3)cc2)n(C2CCC2)c2ncc(Cl)cc12 [Cpd 281, 4-(5-chloro-3-cyano-1-cyclobutyl-1H-pyrrolo[2,3-b]pyridin-2-yl)-N-[1-(trifluoromethyl)cyclopropyl]benzenesulfonamide] | < 0.5 |
| CC(C)(NS(=O)(=O)c1ccc(-c2c(C#N)c3cc(Cl)cnc3n2C2CCC2)cc1)C(F)(F)F [Cpd 282, 4-(5-chloro-3-cyano-1-cyclobutyl-1H-pyrrolo[2,3-b]pyridin-2-yl)-N-(1,1,1-trifluoro-2-methylpropan-2-yl)benzenesulfonamide] | < 0.5 |
| CC1(NS(=O)(=O)c2ccc(-c3c(C#N)c4cc(Cl)cnc4n3C3CCC3)cc2)CC1 [Cpd 284, 4-(5-chloro-3-cyano-1-cyclobutyl-1H-pyrrolo[2,3-b]pyridin-2-yl)-N-(1-methylcyclopropyl)benzenesulfonamide] | < 0.5 |
| COc1cnc2c(c1)c(C#N)c(-c1ccc(S(=O)(=O)NC3(C(F)(F)F)CC3)cn1)n2C1CCC1 [Cpd 312, 6-(3-cyano-1-cyclobutyl-5-methoxy-1H-pyrrolo[2,3-b]pyridin-2-yl)-N-[1-(trifluoromethyl)cyclopropyl]pyridine-3-sulfonamide] | < 0.5 |
| C[C@H](NS(=O)(=O)c1ccc(-c2cc3cc(C(F)(F)F)cnc3n2-c2ccccc2)nc1)C(F)(F)F [Cpd 314, 6-[1-phenyl-5-(trifluoromethyl)-1H-pyrrolo[2,3-b]pyridin-2-yl]-N-[(2S)-1,1,1-trifluoropropan-2-yl]pyridine-3-sulfonamide] | 0.5 to 2 |
| C[C@H](NS(=O)(=O)c1ccc(-c2cc3cc(C(F)(F)F)cnc3n2-c2cnccn2)nc1)C(F)(F)F [Cpd 315, 6-[1-(pyrazin-2-yl)-5-(trifluoromethyl)-1H-pyrrolo[2,3-b]pyridin-2-yl]-N-[(2S)-1,1,1-trifluoropropan-2-yl]pyridine-3-sulfonamide] | < 0.5 |
| C[C@H](NS(=O)(=O)c1ccc(-c2c(C#N)c3cc(F)cnc3n2-c2ccccc2)nc1)C(F)(F)F [Cpd 319, 6-(3-cyano-5-fluoro-1-phenyl-1H-pyrrolo[2,3-b]pyridin-2-yl)-N-[(2S)-1,1,1-trifluoropropan-2-yl]pyridine-3-sulfonamide] | < 0.5 |
| CSc1cnc2c(c1)c(C(=O)O)c(-c1ccc(S(=O)(=O)NC3(C(F)(F)F)CC3)cn1)n2C1CCCC1 [Cpd 330, 1-cyclopentyl-5-(methylsulfanyl)-2-(5-{[1-(trifluoromethyl)cyclopropyl]sulfamoyl}pyridin-2-yl)-1H-pyrrolo[2,3-b]pyridine-3-carboxylic acid] | 2 to 5 |
| CC(C)(NS(=O)(=O)c1ccc(-c2c(C(=O)O)c3cc(Cl)cnc3n2C2CCC2)nc1)C(F)(F)F [Cpd 331, 5-chloro-1-cyclobutyl-2-{5-[(1,1,1-trifluoro-2-methylpropan-2-yl)sulfamoyl]pyridin-2-yl}-1H-pyrrolo[2,3-b]pyridine-3-carboxylic acid] | 0.5 to 2 |
| Cc1cnc2c(c1)c(C(N)=O)c(-c1ccc(S(=O)(=O)NC3(C(F)(F)F)CC3)cc1)n2C1CCC1 [Cpd 342, 1-cyclobutyl-5-methyl-2-(4-{[1-(trifluoromethyl)cyclopropyl]sulfamoyl}phenyl)-1H-pyrrolo[2,3-b]pyridine-3-carboxamide] | < 0.5 |
| Cc1cnc2c(c1)c(C(N)=O)c(-c1ccc(S(=O)(=O)N[C@@H](C)C(F)(F)F)cc1)n2C1CCC1 [Cpd 343, 1-cyclobutyl-5-methyl-2-(4-{[(2S)-1,1,1-trifluoropropan-2-yl]sulfamoyl}phenyl)-1H-pyrrolo[2,3-b]pyridine-3-carboxamide] | < 0.5 |
| C[C@H](NS(=O)(=O)c1ccc(-c2c(C#N)c3cc(N(C)Cc4ccccc4)cnc3n2C2CCC2)nc1)C(F)(F)F [Cpd 350, 6-{5-[benzyl(methyl)amino]-3-cyano-1-cyclobutyl-1H-pyrrolo[2,3-b]pyridin-2-yl}-N-[(2S)-1,1,1-trifluoropropan-2-yl]pyridine-3-sulfonamide] | < 0.5 |
| CN(Cc1ccccc1)c1cnc2c(c1)c(C#N)c(-c1ccc(NS(=O)(=O)C(C)(C)C)cc1)n2C1CCC1 [Cpd 352, N-(4-{5-[benzyl(methyl)amino]-3-cyano-1-cyclobutyl-1H-pyrrolo[2,3-b]pyridin-2-yl}phenyl)-2-methylpropane-2-sulfonamide] | 0.5 to 2 |
| CN(Cc1ccccc1)c1cnc2c(c1)c(C#N)c(-c1ccc(S(=O)(=O)NC(C)(C)C(F)(F)F)cc1)n2C1CCC1 [Cpd 353, 4-{5-[benzyl(methyl)amino]-3-cyano-1-cyclobutyl-1H-pyrrolo[2,3-b]pyridin-2-yl}-N-(1,1,1-trifluoro-2-methylpropan-2-yl)benzenesulfonamide] | 2 to 5 |
| Cc1cnc(-n2c(-c3ccc(S(=O)(=O)N[C@@H](C)C(F)(F)F)cn3)c(C#N)c3cc(C(F)(F)F)cnc32)cn1 [Cpd 354, 6-[3-cyano-1-(5-methylpyrazin-2-yl)-5-(trifluoromethyl)-1H-pyrrolo[2,3-b]pyridin-2-yl]-N-[(2S)-1,1,1-trifluoropropan-2-yl]pyridine-3-sulfonamide] | < 0.5 |
| CC(C)(NS(=O)(=O)c1ccc(-c2c(C#N)c3cc(C(F)(F)F)cnc3n2C2CC2)cc1)C(F)(F)F [Cpd 361, 4-[3-cyano-1-cyclopropyl-5-(trifluoromethyl)-1H-pyrrolo[2,3-b]pyridin-2-yl]-N-(1,1,1-trifluoro-2-methylpropan-2-yl)benzenesulfonamide] | 2 to 5 |
| CC(C)(C)S(=O)(=O)Nc1ccc(-c2c(C#N)c3cc(C(F)(F)F)cnc3n2C2CC2)cc1 [Cpd 362, N-{4-[3-cyano-1-cyclopropyl-5-(trifluoromethyl)-1H-pyrrolo[2,3-b]pyridin-2-yl]phenyl}-2-methylpropane-2-sulfonamide] | 0.5 to 2 |

From patent US9593108B2, “Compounds and methods for antiviral treatment” (PTC Therapeutics, Inc., priority 2009, dated 2017)
